Assay results from US9278925B2, “Substituted 3-(biphenyl-3-yl)-4-hydroxy-8-methoxy-1-azaspiro[4.5]dec-3-en-2-one” (BAYER INTELLECTUAL PROPERTY GMBH, priority 2011, dated 2016).
“And” between values parts separate entries of the source, which are not always exact repeats. Equal entries are not always repeated. Where two headings read alike, the source gives them in different places.

Tests used:
H460 = experiment: Tumour cell proliferation, CellTiter-Glo, 96 h; format: cell-based; details: Homo sapiens, NCI-H460; 96-hour incubation
Description: (§1) In accordance with the invention, the substances were tested in cell-based assays for the ability of the substances of inhibiting tumour cell proliferation after a 96-hour incubation with the substance. Cell viability was tested using the CellTiter-Glo® luminescent cell viability assay (Promega). The cells were sown at a density of 2000-5000 cells/well (depending on the cell line) in 100 μl growth medium on 96-well microtitre plates. For each cell line examined, cells were sown on a separate plate to determine the luminescence at t=0 hours and t=96 hours. After overnight incubation at 37° C., the luminescence values for the t=0 samples were determined. The dose plates for the t=96 hours points in time were treated with substances diluted with growth medium. The cells were then incubated at 37° C. for 96 hours, and the luminescence values for the t=96 hours samples were then determined. For data analysis, the t=0 values were subtracted from the t=96 hours values for treated and untreated samples. The differences in luminescence in percent between substance-treated samples and control values were used to determine the growth inhibition in percent.
(§2) The substances were tested in the following cell lines which represent the stated indications in an exemplary manner: […]

KM12 = experiment: Tumour cell proliferation, CellTiter-Glo, 96 h; format: cell-based; details: Homo sapiens, KM12; 96-hour incubation
Description: as §1, §2

MCF7 = experiment: Tumour cell proliferation, CellTiter-Glo, 96 h; format: cell-based; details: Homo sapiens, MCF7; 96-hour incubation
Description: as §1, §2

PC3 = experiment: Tumour cell proliferation, CellTiter-Glo, 96 h; format: cell-based; details: Homo sapiens, PC-3; 96-hour incubation
Description: as §1, §2

[1] = Maximum tolerated dose (MTD) in female nude mice; format: in vivo, mouse; details: for Deaths: 21 days; for MTD at 21 days: female, NMRI-nude (nu/nu), mouse, in vivo, administration once per day
Description: To this end, initially the maximum tolerable dose (MTD) was determined using the following protocol:
The MTD was defined as the highest dose which could be administered without any animal dying during the treatment phase, and without any body weight loss of more than 10% compared to the initial weight.
(§3) Administration route: oral
• (Solutol HS15: polyoxyethylene ester of 12-hydroxystearic acid) Administration volume: 10 ml/kg: Protocol: see Table 7
The treatment phase was followed by an observation phase of 21 days.

human PC-3 cells = details: for Deaths / T/C: 2 administrations per day; for T/C: final tumour weight; for tolerability (good: body weight change <=minus 10% and 100% survival): administration 2 times per day
Description: Xenograft models in immunosuppressed mice were used to determine the antitumour activity in living organisms.
Use was made primarily of a prostate carcinoma model with hormone-independent human PC-3 cells in male nude mice (NMRI-nude (nu/nu) mice, Taconic M&B A/S). To this end, 3 million tumour cells (suspended in medium+Matrigel 1:1, final 0.1 ml) were injected subcutaneously into the side of each animal. When the tumours extended to an area of 20-30 mm^2, the mice were randomized into therapy groups and therapy was initiated. […] At this point in time, the experiment was terminated in all groups and the prepared tumours were weighed.
The T/C value was calculated as primary success parameter using the effect on the final tumour weight: mean tumour weight in the treatment group divided by mean of the tumour weight in the vehicle group.
as §3
Vehicle: PEG400/ethanol/Solutol HS 15 (70/5/25, v/v/v)
Administration volume: 10 ml/kg
Number of mice: see Table 8

[2] = Effective AUC from plasma concentration time profile in the PC3 tumour model; format: in vivo, mouse; details: nu/nu, plasma, oral, read-out: ther. AUC (mouse)
Description: (§4) The human pharmacokinetic (PK) parameters (Table 9) were predicted based on the in vivo PK parameters obtained for rats (single species scaling), taking into account the interspecies differences in the free fraction (fu) in the plasma. The effective AUC (area under curve) was determined based on the measured plasma concentration time profile for in vivo efficacy in the PC3 tumour model of the mouse (nu/nu mouse).

[3] = Prediction of human pharmacokinetic parameters and human therapeutic dosage (single species scaling from rat); details: human, plasma; for AUC: read-out: calc. AUC (human); for clearance: predicted (fu-corrected) from rat PK, read-out: pred. CL (human) (converted)
Description: as §4, with “mouse). The therapeutic human dosage was determined using the predicted human clearance (CL), assuming 100% bioavailability (F=1) and using the effective AUC in the animal model according to the formula below: […]” for “mouse).”

human ACC1 [4] = target: human ACC1 (Homo sapiens, UniProt Q13085); experiment: Human ACC1 enzyme assay (ADP-Glo); format: biochemical; details: individual measurement (measurement no./preparation no. in table); read-out: ACC 1 IC50
Description: (§5) Typical concentrations were in the range of 1.75 μl.

human ACC1 [5] = experiment: Human ACC1 enzyme assay (ADP-Glo); format: biochemical; details: for Ratio IC50s ACC2/ACC1 (respective measurement): pairwise, same dilution series
Description: as §5

human ACC2 = human ACC2 (Homo sapiens (Human), UniProt O00763); experiment: Human ACC2 enzyme assay (ADP-Glo); details: read-out: ACC 2 IC50; individual measurement (measurement no./preparation no. in table)
human ACC2, sequence (O00763 27-2458 limits assumed): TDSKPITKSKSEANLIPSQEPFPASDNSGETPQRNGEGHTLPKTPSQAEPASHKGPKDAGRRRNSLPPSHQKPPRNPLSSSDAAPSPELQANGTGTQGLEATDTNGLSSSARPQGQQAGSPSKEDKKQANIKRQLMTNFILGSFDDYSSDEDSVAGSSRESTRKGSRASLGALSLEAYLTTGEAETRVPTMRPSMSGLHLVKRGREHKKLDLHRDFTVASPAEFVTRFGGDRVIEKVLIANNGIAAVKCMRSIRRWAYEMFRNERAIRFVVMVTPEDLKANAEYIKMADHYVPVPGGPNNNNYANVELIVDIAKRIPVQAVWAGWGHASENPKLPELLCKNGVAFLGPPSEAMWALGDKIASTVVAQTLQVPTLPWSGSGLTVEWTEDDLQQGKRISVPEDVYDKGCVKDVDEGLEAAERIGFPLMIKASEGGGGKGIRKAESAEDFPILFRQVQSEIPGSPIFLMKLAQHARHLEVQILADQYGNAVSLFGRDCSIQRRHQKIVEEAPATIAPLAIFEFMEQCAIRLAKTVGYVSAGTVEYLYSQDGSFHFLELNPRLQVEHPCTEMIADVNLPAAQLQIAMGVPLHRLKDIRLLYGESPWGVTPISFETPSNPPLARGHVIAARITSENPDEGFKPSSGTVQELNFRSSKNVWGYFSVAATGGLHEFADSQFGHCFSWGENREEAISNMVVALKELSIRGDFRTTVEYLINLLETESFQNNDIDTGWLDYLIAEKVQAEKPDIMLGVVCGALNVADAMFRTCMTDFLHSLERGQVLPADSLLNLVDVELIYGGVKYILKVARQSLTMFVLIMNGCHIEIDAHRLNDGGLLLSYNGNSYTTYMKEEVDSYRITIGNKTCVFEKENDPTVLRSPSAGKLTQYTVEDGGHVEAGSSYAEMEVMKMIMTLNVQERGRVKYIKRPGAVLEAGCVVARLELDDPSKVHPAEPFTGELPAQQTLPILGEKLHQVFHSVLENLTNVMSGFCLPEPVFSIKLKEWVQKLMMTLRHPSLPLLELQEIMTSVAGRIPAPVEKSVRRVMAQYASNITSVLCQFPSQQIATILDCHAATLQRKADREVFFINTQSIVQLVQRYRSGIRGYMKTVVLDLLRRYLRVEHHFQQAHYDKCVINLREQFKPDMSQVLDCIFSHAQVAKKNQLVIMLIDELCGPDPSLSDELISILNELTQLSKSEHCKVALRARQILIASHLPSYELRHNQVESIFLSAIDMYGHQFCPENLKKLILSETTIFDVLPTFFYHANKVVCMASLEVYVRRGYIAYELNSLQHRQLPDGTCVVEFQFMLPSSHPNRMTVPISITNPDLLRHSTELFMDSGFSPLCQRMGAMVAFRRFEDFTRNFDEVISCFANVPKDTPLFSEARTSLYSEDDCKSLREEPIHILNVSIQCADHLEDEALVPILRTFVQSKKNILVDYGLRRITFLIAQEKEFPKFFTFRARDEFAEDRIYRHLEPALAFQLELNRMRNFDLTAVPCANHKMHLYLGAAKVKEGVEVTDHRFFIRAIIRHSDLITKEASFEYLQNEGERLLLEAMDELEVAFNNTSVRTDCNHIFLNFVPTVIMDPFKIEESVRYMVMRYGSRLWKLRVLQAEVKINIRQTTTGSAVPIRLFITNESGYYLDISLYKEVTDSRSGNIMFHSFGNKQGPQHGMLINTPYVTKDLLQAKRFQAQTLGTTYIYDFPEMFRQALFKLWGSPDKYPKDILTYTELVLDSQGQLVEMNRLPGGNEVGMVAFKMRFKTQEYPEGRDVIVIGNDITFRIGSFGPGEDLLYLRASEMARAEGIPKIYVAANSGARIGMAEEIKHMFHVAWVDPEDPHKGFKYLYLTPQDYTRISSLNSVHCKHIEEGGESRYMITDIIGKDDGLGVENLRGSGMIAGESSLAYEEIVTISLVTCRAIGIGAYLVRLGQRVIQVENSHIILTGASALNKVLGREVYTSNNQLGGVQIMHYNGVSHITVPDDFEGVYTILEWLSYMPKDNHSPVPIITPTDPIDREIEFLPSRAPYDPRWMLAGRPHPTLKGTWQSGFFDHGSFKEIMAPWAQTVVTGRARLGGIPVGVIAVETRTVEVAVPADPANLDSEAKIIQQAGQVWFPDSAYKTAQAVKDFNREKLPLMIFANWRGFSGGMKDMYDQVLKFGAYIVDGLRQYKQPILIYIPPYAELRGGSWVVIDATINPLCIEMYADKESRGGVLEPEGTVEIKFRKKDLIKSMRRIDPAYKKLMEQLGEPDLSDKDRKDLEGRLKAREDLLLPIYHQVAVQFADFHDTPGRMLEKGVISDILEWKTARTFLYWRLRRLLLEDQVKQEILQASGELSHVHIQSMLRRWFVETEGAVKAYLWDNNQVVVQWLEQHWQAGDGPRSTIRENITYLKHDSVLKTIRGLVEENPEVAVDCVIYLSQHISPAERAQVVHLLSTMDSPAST

[6] = 100 mg/kg oral, 1 administration per day
[7] = dosage (mouse) 80 mg/kg 2 × per day
[8] = from mouse dosage 80 mg/kg 2 × per day

Compound | IC50 (H460) [nM] | IC50 (KM12) [nM] | IC50 (MCF7) [nM] | IC50 (PC3) [nM] | tolerability (good: body weight change <=minus 10% and 100% survival) (human PC-3 cells; 80 mg/kg) | AUC [2, 7] [µg·h/mL] | AUC [3, 8] [µg·h/mL] | clearance [3] [mL/h/kg] | Selectivity ACC1 vs. ACC2 (mean of the individual measurements ± standard deviation) (human ACC1 [5]) | Ratio IC50s ACC2/ACC1 (respective measurement) (human ACC1 [5]) | also measured
CO[C@]1(C(F)(F)F)CC[C@]2(CC1)NC(=O)C(c1cc(-c3ccc(Cl)cc3)ccc1C)=C2O [Example 1-1, (5r,8r)-3-(4′-Chloro-4-methylbiphenyl-3-yl)-4-hydroxy-8-methoxy-8-(trifluoromethyl)-1-azaspiro[4.5]dec-3-en-2-one] | 88 | 21 | 26 | 29 | good tolerability | 289 | 1160 | 2 |  |  | Deaths ([1]; 12.5 mg/kg oral, 1 administration per day): 0 of 4; Deaths ([1]; 25 mg/kg oral, 1 administration per day): 0 of 4; Deaths ([1]; 50 mg/kg oral, 1 administration per day): 1 of 4; Deaths ([1]; 75 mg/kg oral, 1 administration per day): 0 of 4; Deaths [1, 6]: 0 of 4; MTD at 21 days ([1]; 21-day treatment, oral): > 100 mg/kg; Deaths (human PC-3 cells; 80 mg/kg oral, 15 days): 0 of 10; T/C (human PC-3 cells; 80 mg/kg oral, 15 days): 0.34
CO[C@]1(C(F)(F)F)CC[C@]2(CC1)NC(=O)C(c1cc(-c3ccc(Cl)c(F)c3)ccc1C)=C2O [Example 1-2, (5r,8r)-3-(4′-Chloro-3′-fluoro-4-methylbiphenyl-3-yl)-4-hydroxy-8-methoxy-8-(trifluoromethyl)-1-azaspiro[4.5]dec-3-en-2-one] | 104 | 14 | < 14 | 22 | good tolerability | 156 | 842 | 9 |  |  | Deaths (human PC-3 cells; 40 mg/kg oral, 17 days): 0 of 9; T/C (human PC-3 cells; 40 mg/kg oral, 17 days): 0.44; tolerability (good: body weight change <=minus 10% and 100% survival) (human PC-3 cells; 40 mg/kg): good tolerability; Deaths (human PC-3 cells; 80 mg/kg oral, 17 days): 0 of 9; T/C (human PC-3 cells; 80 mg/kg oral, 17 days): 0.28; AUC ([2]; dosage (mouse) 40 mg/kg 2 × per day): 66 µg·h/mL; AUC ([3]; from mouse dosage 40 mg/kg 2 × per day): 355 µg·h/mL
COC[C@]1(OC)CC[C@@]2(CC1)NC(=O)C(c1cc(-c3ccc(Cl)cc3)ccc1C)=C2O [Example 1-3, (5r,8r)-3-(4′-Chloro-4-methylbiphenyl-3-yl)-4-hydroxy-8-methoxy-8-(methoxymethyl)-1-azaspiro[4.5]dec-3-en-2-one] | 365 | 222 | 45 | 194 |  |  |  |  | 47.0 ± 2.1 | 49.0 and 44.9 | IC50 (human ACC1 [4]): 165 nM and 146 nM; IC50 (human ACC2): 8080 nM and 6550 nM
COC[C@]1(OC)CC[C@@]2(CC1)NC(=O)C(c1cc(-c3ccc(Cl)c(F)c3)ccc1C)=C2O [Example 1-4, (5r,8r)-3-(4′-Chloro-3′-fluoro-4-methylbiphenyl-3-yl)-4-hydroxy-8-methoxy-8-(methoxymethyl)-1-azaspiro[4.5]dec-3-en-2-one] | 333 | 96 | 48 | 120 | good tolerability | 712 | 4130 | 3 |  |  | Deaths ([1]; 25 mg/kg oral, 2 administrations per day): 0 of 4; Deaths ([1]; 50 mg/kg oral, 2 administrations per day): 0 of 4; Deaths ([1]; 75 mg/kg oral, 2 administrations per day): 0 of 4; Deaths [1, 6]: 0 of 4; Deaths ([1]; 100 mg/kg oral, 2 administrations per day): 0 of 4; MTD ([1]; 21-day treatment, administration twice per day, oral): higher than 100 mg/kg; MTD at 21 days ([1]; 21-day treatment, oral): > 100 mg/kg; Deaths (human PC-3 cells; 80 mg/kg oral, 17 days): 0 of 10; T/C (human PC-3 cells; 80 mg/kg oral, 17 days): 0.29
Cc1ccc(-c2ccc(Cl)cc2)cc1C1=C(O)[C@]2(CC[C@](O)(C(F)(F)F)CC2)NC1=O [V.1-c, (5r,8r)-3-(4′-Chloro-4-methylbiphenyl-3-yl)-4,8-dihydroxy-8-(trifluoromethyl)-1-azaspiro[4.5]dec-3-en-2-one] | 1870 | 827 |  | 275 |  |  |  |  |  |  | 
Cc1ccc(-c2ccc(Cl)c(F)c2)cc1C1=C(O)[C@]2(CC[C@](O)(C(F)(F)F)CC2)NC1=O [V.2-c, (5r,8r)-3-(4′-Chloro-3′-fluoro-4-methylbiphenyl-3-yl)-4,8-dihydroxy-8-(trifluoromethyl)-1-azaspiro[4.5]dec-3-en-2-one] | 2120 | 2370 |  | 767 |  |  |  |  |  |  | 
COC[C@H]1CC[C@]2(CC1)NC(=O)C(c1cc(-c3ccc(Cl)cc3)ccc1C)=C2O [V.3-b, (5s,8s)-3-(4′-Chloro-4-methylbiphenyl-3-yl)-4-hydroxy-8-(methoxymethyl)-1-azaspiro[4.5]dec-3-en-2-one] | 67 | 31 | 23 | 36 |  |  |  |  | 6.4 | 6.4 | 
COC[C@H]1CC[C@]2(CC1)NC(=O)C(c1cc(-c3ccc(Cl)c(F)c3)ccc1C)=C2O [V.4-b, (5s,8s)-3-(4′-Chloro-3′-fluoro-4-methylbiphenyl-3-yl)-4-hydroxy-8-(methoxymethyl)-1-azaspiro[4.5]dec-3-en-2-one] | 43 | 35 | 20 | 30 |  |  |  |  | 15.2 | 15.2 | IC50 (human ACC1 [4]): 73 nM; IC50 (human ACC2): 1120 nM
